{"source": "patent US20230124764A1", "about": "“LACTOBACILLUS HARBINENSIS AND APPLICATION THEREOF” (priority 2018, published 2023)", "key": {"[1]": {"system": "Lacticaseibacillus casei-01", "assay": "Antibiotic sensitivity, MIC on antibacterial MRS agar plates", "type": "cell-based", "conditions": "for MIC: Lacticaseibacillus", "protocol": "(§1) According to the criteria for determining bacterial resistance (2012 edition) stipulated by the European Food Safety Agency, antibiotics including ampicillin, vancomycin, gentamicin, kanamycin, streptomycin, erythromycin, clindamycin, tetracycline and chloramphenicol were used to prepare antibacterial stock solutions with a concentration of 5120 μg/mL. They were diluted to the required concentration by a diluent preparation method before use, and were added to the corresponding medium according with certain proportion. 9.0 mL of the modified MRS agar media were added into large test tubes. After sterilizing at 121° C. for 15 min, they were placed in a water bath (50° C.) at a constant temperature for later use. 1.0 mL of the antibacterial diluents were pipetted into the large test tubes, followed by vortexing and mixing immediately. The diluents were then poured into a sterile petri dish, and bacteriostatic plates with a certain drug concentration (μg/mL) were prepared after solidification. For each antibiotics, 8 concentration gradient antibacterial plates were prepared according to a ½ dilution method. […] At the same time, a blank plate without inoculation was used as a control. […] 3 parallel experiments were conducted. The lactic acid bacteria susceptibility result was shown in Table 1 determined according to the relevant standards: […] The second step was the preparation of antibacterial plates: antibiotics including ampicillin, vancomycin, gentamicin, kanamycin, streptomycin, erythromycin, clindamycin, tetracycline and chloramphenicol were used to prepare antibacterial stock solutions at a concentration of […]. The solutions were diluted to the required concentration before use according to a diluent preparation method. 1.0 mL of the antibacterial diluents were pipetted into large test tubes with 9.0 mL of modified MRS agar media, followed by vortexing and mixing immediately. Then, they were poured on sterile plates. After solidification, antibacterial plates with a certain antibiotic concentration (m/mL) were obtained. At the same time, a control plate without antibiotic was prepared. […] At the same time, a blank plate without inoculation was used as a control."}, "[2]": {"system": "Schleiferilactobacillus harbinensis M1", "assay": "Antibiotic sensitivity, MIC on antibacterial MRS agar plates", "type": "cell-based", "conditions": "for MIC: Schleiferilactobacillus harbinensis", "protocol": "as §1"}, "[3]": {"conditions": "CASEI01, against L. casei-01, agar plates, 37° C., 16-20 hours, read-out: MIC value"}, "[4]": {"conditions": "against S. harbinensis M1, agar plates, 37° C., 16-20 hours, read-out: MIC value"}}, "note": "Where two headings read alike, the source gives them in different places."}
{"compound": "CC1(C)S[C@@H]2[C@H](NC(=O)[C@H](N)c3ccccc3)C(=O)N2[C@H]1C(=O)O", "note": "[ampicillin]", "values": [{"measurement": "MIC", "setting": "[1]; [3]", "result": 1, "unit": "µg/mL"}, {"measurement": "MIC", "setting": "[2]; [4]", "result": 1, "unit": "µg/mL"}]}
{"compound": "O=C(N[C@H](CO)[C@H](O)c1ccc([N+](=O)[O-])cc1)C(Cl)Cl", "note": "[chloramphenicol]", "values": [{"measurement": "MIC", "setting": "[1]; [3]", "result": 4, "unit": "µg/mL"}, {"measurement": "MIC", "setting": "[2]; [4]", "result": 2, "unit": "µg/mL"}]}
{"compound": "CCC[C@@H]1C[C@@H](C(=O)N[C@@H]([C@H]2O[C@H](SC)[C@H](O)[C@@H](O)[C@H]2O)[C@H](C)Cl)N(C)C1", "note": "[clindamycin]", "values": [{"measurement": "MIC", "setting": "[1]; [3]", "result": 0.125, "unit": "µg/mL"}, {"measurement": "MIC", "setting": "[2]; [4]", "result": 0.5, "unit": "µg/mL"}]}
{"compound": "CC[C@H]1OC(=O)[C@H](C)[C@@H](O[C@H]2C[C@@](C)(OC)[C@@H](O)[C@H](C)O2)[C@H](C)[C@@H](O[C@@H]2O[C@H](C)C[C@H](N(C)C)[C@H]2O)[C@](C)(O)C[C@@H](C)C(=O)[C@H](C)[C@@H](O)[C@]1(C)O", "note": "[erythromycin]", "values": [{"measurement": "MIC", "setting": "[1]; [3]", "result": 0.5, "unit": "µg/mL"}, {"measurement": "MIC", "setting": "[2]; [4]", "result": 0.5, "unit": "µg/mL"}]}
{"compound": "NC[C@H]1O[C@H](O[C@H]2[C@H](O)[C@@H](O[C@H]3O[C@H](CO)[C@@H](O)[C@H](N)[C@H]3O)[C@H](N)C[C@@H]2N)[C@H](O)[C@@H](O)[C@@H]1O", "note": "[kanamycin]", "values": [{"measurement": "MIC", "setting": "[1]; [3]", "result": 16, "unit": "µg/mL"}, {"measurement": "MIC", "setting": "[2]; [4]", "result": 16, "unit": "µg/mL"}]}
{"compound": "[H]/N=C(/N)N[C@H]1[C@H](O)[C@@H](O)[C@H](O[C@@H]2O[C@@H](C)[C@](O)(C=O)[C@H]2O[C@@H]2O[C@@H](CO)[C@H](O)[C@@H](O)[C@@H]2NC)[C@@H](N/C(N)=N\\[H])[C@@H]1O", "note": "[streptomycin]", "values": [{"measurement": "MIC", "setting": "[1]; [3]", "result": 16, "unit": "µg/mL"}, {"measurement": "MIC", "setting": "[2]; [4]", "result": 8, "unit": "µg/mL"}]}
{"compound": "CN(C)[C@@H]1C(O)=C(C(N)=O)C(=O)[C@@]2(O)C(O)=C3C(=O)c4c(O)cccc4[C@@](C)(O)[C@H]3C[C@@H]12", "note": "[tetracycline]", "values": [{"measurement": "MIC", "setting": "[1]; [3]", "result": 2, "unit": "µg/mL"}, {"measurement": "MIC", "setting": "[2]; [4]", "result": 2, "unit": "µg/mL"}]}
{"compound": "CN[C@H](CC(C)C)C(=O)N[C@H]1C(=O)N[C@@H](CC(N)=O)C(=O)N[C@H]2C(=O)N[C@H]3C(=O)N[C@H](C(=O)N[C@H](C(=O)O)c4cc(O)cc(O)c4-c4cc3ccc4O)[C@H](O)c3ccc(c(Cl)c3)Oc3cc2cc(c3O[C@@H]2O[C@H](CO)[C@@H](O)[C@H](O)[C@H]2O[C@H]2C[C@](C)(N)[C@H](O)[C@H](C)O2)Oc2ccc(cc2Cl)[C@H]1O", "note": "[vancomycin]", "values": [{"measurement": "MIC", "setting": "[1]; CASEI01, read-out: MIC value", "result": 4, "unit": "µg/mL"}, {"measurement": "MIC", "setting": "[2]; M1, read-out: MIC value", "result": 2, "unit": "µg/mL"}]}
{"compound": "gentamicin", "values": [{"measurement": "MIC value", "setting": "[1]; against L. casei-01, agar plates, 37° C., 16-20 hours", "result": 16, "unit": "µg/mL"}, {"measurement": "MIC value", "setting": "[2]; against S. harbinensis M1, agar plates, 37° C., 16-20 hours", "result": 16, "unit": "µg/mL"}]}
